Source: ChEMBL document CHEMBL4043197, “Quinazoline-1-deoxynojirimycin hybrids as high active dual inhibitors of EGFR and α-glucosidase” (Bioorg Med Chem Lett, 2017)
Structures can show the parent of a compound that is named as a salt.

Key:
[1] = Inhibition of recombinant alpha-glucosidase (unknown origin) using PNP-G as substrate preincubated for 5 mins followed by substrate addition measured after 30 mins by spectrophotometric analysis; parameters: species or system Homo sapiens
[2] = molecular target: T1, Epidermal growth factor receptor (Homo sapiens, UniProt P00533); settings: at 50 nM
Description: Inhibition of wild type recombinant EGFR (unknown origin) at 50 nM by ELISA relative to control

[3] = molecular target: T1, Epidermal growth factor receptor; experiment: Inhibition of wild type recombinant EGFR (unknown origin) by ELISA

T1 sequence (P00533 whole entry): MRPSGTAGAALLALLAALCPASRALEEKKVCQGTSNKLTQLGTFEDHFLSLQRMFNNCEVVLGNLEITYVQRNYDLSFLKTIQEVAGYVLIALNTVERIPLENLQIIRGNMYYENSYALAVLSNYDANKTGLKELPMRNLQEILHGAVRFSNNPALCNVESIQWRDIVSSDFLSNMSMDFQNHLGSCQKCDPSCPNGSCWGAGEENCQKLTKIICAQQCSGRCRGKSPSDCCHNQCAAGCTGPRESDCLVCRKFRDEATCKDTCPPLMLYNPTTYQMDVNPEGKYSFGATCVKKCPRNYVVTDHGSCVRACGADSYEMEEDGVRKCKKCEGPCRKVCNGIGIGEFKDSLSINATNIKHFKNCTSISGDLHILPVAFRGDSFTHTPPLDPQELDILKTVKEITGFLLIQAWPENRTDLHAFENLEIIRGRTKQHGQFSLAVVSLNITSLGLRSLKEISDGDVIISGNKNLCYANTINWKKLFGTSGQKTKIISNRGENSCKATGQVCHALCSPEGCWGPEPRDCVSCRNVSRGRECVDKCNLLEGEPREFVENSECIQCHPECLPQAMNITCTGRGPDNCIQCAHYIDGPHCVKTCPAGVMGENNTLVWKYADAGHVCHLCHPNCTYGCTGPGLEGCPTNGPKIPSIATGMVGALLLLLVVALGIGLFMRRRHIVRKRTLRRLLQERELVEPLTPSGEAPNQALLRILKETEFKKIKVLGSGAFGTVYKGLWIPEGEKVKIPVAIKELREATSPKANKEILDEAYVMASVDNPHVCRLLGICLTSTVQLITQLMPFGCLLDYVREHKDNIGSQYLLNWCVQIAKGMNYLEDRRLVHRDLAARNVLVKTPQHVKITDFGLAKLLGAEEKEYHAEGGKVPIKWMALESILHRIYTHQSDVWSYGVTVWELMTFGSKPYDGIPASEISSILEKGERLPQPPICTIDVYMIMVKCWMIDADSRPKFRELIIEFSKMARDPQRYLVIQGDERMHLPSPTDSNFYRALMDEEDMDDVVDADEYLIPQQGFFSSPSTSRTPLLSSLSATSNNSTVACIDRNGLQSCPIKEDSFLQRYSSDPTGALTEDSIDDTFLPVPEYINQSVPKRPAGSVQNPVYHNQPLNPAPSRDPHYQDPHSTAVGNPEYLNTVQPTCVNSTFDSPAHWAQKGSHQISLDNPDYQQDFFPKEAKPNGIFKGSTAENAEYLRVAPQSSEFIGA

Compound	IC50 [1] [µM]	inhibition [2] [%]	IC50 [3] [µM]
OC[C@H]1NC[C@H](O)[C@@H](O)[C@@H]1O [DUVOGLUSTAT HYDROCHLORIDE]	0.07		
OC[C@@H]1[C@@H](O)[C@H](O)[C@@H](O)CN1Cc1ccc(-c2ccc3ncnc(Nc4ccc(F)c(Cl)c4)c3c2)o1		78	
COc1cc2c(Nc3ccc(OCc4cccc(F)c4)c(Cl)c3)ncnc2cc1OCCCN1C[C@H](O)[C@@H](O)[C@H](O)[C@H]1CO	0.14	78.2	0.00453
COc1cc2c(Nc3ccc(F)c(Cl)c3)ncnc2cc1OCCCN1C[C@H](O)[C@@H](O)[C@H](O)[C@H]1CO	0.39	85.3	0.00179
C#Cc1cccc(Nc2ncnc3cc(OC)c(OCCN4C[C@H](O)[C@@H](O)[C@H](O)[C@H]4CO)cc23)c1	7.18	56.4	
COc1cc2ncnc(Nc3ccc(F)c(Cl)c3)c2cc1OCCN1C[C@H](O)[C@@H](O)[C@H](O)[C@H]1CO	8.4	65.2	
C#Cc1cccc(Nc2ncnc3cc(OC)c(OCCCN4C[C@H](O)[C@@H](O)[C@H](O)[C@H]4CO)cc23)c1	6.19	79.6	
C#Cc1cccc(Nc2ncnc3cc(OCCN4C[C@H](O)[C@@H](O)[C@H](O)[C@H]4CO)c(OC)cc23)c1	6.25	53.5	

Second part, the compound after the results:

IC50 [1] [µM]	inhibition [2] [%]	IC50 [3] [µM]	Compound
21.2	74.9		COc1cc2ncnc(Nc3ccc(OCc4cccc(F)c4)c(Cl)c3)c2cc1OCCCN1C[C@H](O)[C@@H](O)[C@H](O)[C@H]1CO
0.25	53.7		COc1cc2c(Nc3ccc(F)c(Cl)c3)ncnc2cc1OCCN1C[C@H](O)[C@@H](O)[C@H](O)[C@H]1CO
4.34	83.5	0.0107	COc1cc2ncnc(Nc3ccc(F)c(Cl)c3)c2cc1OCCCN1C[C@H](O)[C@@H](O)[C@H](O)[C@H]1CO
64.1	66.5		COc1cc2ncnc(Nc3ccc(OCc4cccc(F)c4)c(Cl)c3)c2cc1OCCN1C[C@H](O)[C@@H](O)[C@H](O)[C@H]1CO
	50.6		OC[C@@H]1[C@@H](O)[C@H](O)[C@@H](O)CN1Cc1ccc(-c2ccc3ncnc(Nc4ccc(OCc5cccc(F)c5)c(Cl)c4)c3c2)o1
2.43			OCCN1C[C@H](O)[C@@H](O)[C@H](O)[C@H]1CO [MIGLITOL]
0.09	83.2	0.00487	C#Cc1cccc(Nc2ncnc3cc(OCCCN4C[C@H](O)[C@@H](O)[C@H](O)[C@H]4CO)c(OC)cc23)c1
	27.1		C#Cc1cccc(Nc2ncnc3ccc(-c4ccc(CN5C[C@H](O)[C@@H](O)[C@H](O)[C@H]5CO)o4)cc23)c1
